# Assay results: patent publication US10428080B2, “TBK/IKK inhibitor compounds and uses thereof” (Merck Patent GmbH, priority 2015, dated 2019)
# Where two headings read alike, the source gives them in different places.
# How the values were obtained:
# TBK1 = target: T1, TBK1 (Homo sapiens, UniProt Q9UHD2); test: TBK Biochemical Assay; settings: read-out: TBK1 IC50
# T1 sequence (Q9UHD2 1-729): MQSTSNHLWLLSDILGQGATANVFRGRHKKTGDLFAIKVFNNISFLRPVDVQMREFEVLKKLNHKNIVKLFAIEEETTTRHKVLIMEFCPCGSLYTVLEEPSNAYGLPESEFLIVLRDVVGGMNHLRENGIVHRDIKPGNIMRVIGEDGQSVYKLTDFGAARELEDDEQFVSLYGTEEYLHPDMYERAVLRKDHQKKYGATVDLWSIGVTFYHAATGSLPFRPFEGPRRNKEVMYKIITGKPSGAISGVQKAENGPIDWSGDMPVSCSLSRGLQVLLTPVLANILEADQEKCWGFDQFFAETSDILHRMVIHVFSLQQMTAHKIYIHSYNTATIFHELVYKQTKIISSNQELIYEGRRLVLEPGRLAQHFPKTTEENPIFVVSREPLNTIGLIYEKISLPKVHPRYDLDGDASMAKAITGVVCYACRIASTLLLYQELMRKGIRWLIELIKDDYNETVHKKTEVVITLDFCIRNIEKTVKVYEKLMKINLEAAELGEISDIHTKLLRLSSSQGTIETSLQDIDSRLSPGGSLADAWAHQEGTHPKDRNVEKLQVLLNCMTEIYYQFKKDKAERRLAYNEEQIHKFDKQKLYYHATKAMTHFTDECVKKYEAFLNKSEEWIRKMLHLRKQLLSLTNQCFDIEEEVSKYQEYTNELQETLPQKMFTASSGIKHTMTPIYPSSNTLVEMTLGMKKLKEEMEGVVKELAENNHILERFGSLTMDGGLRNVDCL
# How it was run: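 Caliper LabChip mobility-shift readout of substrate and product after 90 min of TBK1 reaction at 25° C and stop-buffer addition. Compounds tested in 1:4 serial dilution over 10 points from 30 uM final at 1% DMSO; staurosporine 10 uM final defines full inhibition.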
# IKKε = target: T2, IKKε (Homo sapiens, UniProt Q14164); test: IKKe Biochemical Assay; settings: read-out: IKKε IC50
# T2 sequence (Q14164 1-716): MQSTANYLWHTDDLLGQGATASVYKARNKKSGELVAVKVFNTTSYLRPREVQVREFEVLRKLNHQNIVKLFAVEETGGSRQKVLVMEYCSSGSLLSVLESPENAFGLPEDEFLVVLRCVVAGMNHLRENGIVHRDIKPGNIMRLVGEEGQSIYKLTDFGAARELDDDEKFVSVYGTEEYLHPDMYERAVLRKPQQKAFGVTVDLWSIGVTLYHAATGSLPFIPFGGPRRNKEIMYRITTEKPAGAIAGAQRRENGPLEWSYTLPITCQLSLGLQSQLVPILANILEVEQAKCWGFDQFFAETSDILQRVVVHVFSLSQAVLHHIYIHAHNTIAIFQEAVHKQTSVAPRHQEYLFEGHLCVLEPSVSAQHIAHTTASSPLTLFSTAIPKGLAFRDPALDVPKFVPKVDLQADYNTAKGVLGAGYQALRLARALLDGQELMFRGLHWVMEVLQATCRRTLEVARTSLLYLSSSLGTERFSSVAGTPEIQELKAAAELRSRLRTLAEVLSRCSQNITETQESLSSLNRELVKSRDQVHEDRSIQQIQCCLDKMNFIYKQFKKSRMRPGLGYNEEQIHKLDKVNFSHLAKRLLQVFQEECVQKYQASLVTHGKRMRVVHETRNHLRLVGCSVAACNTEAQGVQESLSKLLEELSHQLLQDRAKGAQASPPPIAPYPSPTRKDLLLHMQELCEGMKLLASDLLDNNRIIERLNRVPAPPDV
# How it was run: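 Activity was measured as mobility-shift separation of phosphorylated from unphosphorylated substrate on a LabChip EZ Reader. Compound was titrated from 30 uM final in 10 points, 1:4 steps, with 1% DMSO, and enzyme plus substrate reacted 90 min at 25° C before stop buffer. Control wells held 10 uM staurosporine.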
# [1] = test system: phosphorylation of the IRF-3 protein in MDA-MB-468 cells; test: pIRF3 immunocytochemistry cell based assay; settings: MDA-MB-468 cells, Poly(I:C) stimulation, read-out: pIRF3 IC50
# How it was run: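 After 2 h stimulation with Poly(I:C) (10 ug/ml), following 1 h compound pre-treatment (10-point, 3-fold dilution, top 10 uM), MDA-MB-468 cells were fixed and stained with anti-pIRF3 antibody. pIRF3 fluorescence was normalized to PI staining or cell count on an Acumen cytometer. IC50 curves were derived from this.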
SMILES,IC50 (TBK1) [nM],IC50 (IKKε) [nM],IC50 ([1]; Homo sapiens) [nM],IC50 [1] [nM]
"COc1cc(C(=O)N(C)C)cnc1-c1cc2nccc(-c3ccc(OC4CCN(C(C)C)C4)c(C#N)c3)c2o1 (stereo not drawn) [Compound 427, 6-(7-(3-cyano-4-(1-isopropylpyrrolidin-3-yloxy)phenyl)furo[3,2-b]pyridin-2-yl)-5-methoxy-N,N-dimethylnicotinamide]",100 to 1000,100 to 1000,100 to 1000,–
"COc1cc(C(=O)N2CC3CC(C2)O3)cnc1-c1cc2nccc(-c3ccc(OC4CCOCC4)c(C#N)c3)c2o1 [Compound 435, 5-[2-[3-methoxy-5-([6-oxa-3-azabicyclo[3.1.1]heptan-3-yl]carbonyl)pyridin-2-yl]furo[3,2-b]pyridin-7-yl]-2-(oxan-4-yloxy)benzonitrile]",< 100,< 100,< 100,–
"COc1cc(C(=O)NC2CN3CCC2CC3)cnc1-c1cc2nccc(-c3ccc(N4CCC(F)C4)c(C#N)c3)c2o1 (stereo not drawn) [Compound 438, N-[1-azabicyclo[2.2.2]octan-3-yl]-6-[7-[3-cyano-4-(3-fluoropyrrolidin-1-yl)phenyl]furo[3,2-b]pyridin-2-yl]-5-methoxypyridine-3-carboxamide]",< 100,< 100,100 to 1000,–
"COc1cc(C(=O)NC2CN3CCC2CC3)cnc1-c1cc2nccc(-c3ccc(N4CC[C@H](F)C4)c(C#N)c3)c2o1 (stereo partly drawn) [Compound 439, N—(S)-1-Aza-bicyclo[2.20.2]oct-3-yl-6-{7-[3-cyano-4-((S)-3-fluoro-pyrrolidin-1-yl)-phenyl]-furo[3,2-b]pyridin-2-yl}-5-methoxy-nicotinamide]",< 100,< 100,100 to 1000,–
"COc1cc(C(=O)NC2CN3CCC2CC3)cnc1-c1cc2nccc(-c3ccc(N4CC[C@@H](F)C4)c(C#N)c3)c2o1 (stereo partly drawn) [Compound 440, N—(S)-1-Aza-bicyclo[2.20.2]oct-3-yl-6-{7-[3-cyano-4-((R)-3-fluoro-pyrrolidin-1-yl)-phenyl]-furo[3,2-b]pyridin-2-yl}-5-methoxy-nicotinamide]",< 100,< 100,100 to 1000,–
"COc1cc(C(=O)NC2CN3CCC2CC3)cnc1-c1cc2nccc(-c3ccc(N4CC[C@H](F)C4)c(C#N)c3)c2o1 (stereo partly drawn) [Compound 441, N—(R)-1-Aza-bicyclo[2.20.2]oct-3-yl-6-{7-[3-cyano-4-((S)-3-fluoro-pyrrolidin-1-yl)-phenyl]-furo[3,2-b]pyridin-2-yl}-5-methoxy-nicotinamide]",< 100,< 100,–,100 to 1000
"COc1cc(C(=O)NC2CN3CCC2CC3)cnc1-c1cc2nccc(-c3ccc(N4CC[C@@H](F)C4)c(C#N)c3)c2o1 (stereo partly drawn) [Compound 442, N—(R)-1-Aza-bicyclo[2.20.2]oct-3-yl-6-{7-[3-cyano-4-((R)-3-fluoro-pyrrolidin-1-yl)-phenyl]-furo[3,2-b]pyridin-2-yl}-5-methoxy-nicotinamide]",< 100,< 100,–,100 to 1000
"COc1cc(C(=O)NC2CN3CCC2CC3)ncc1-c1cc2nccc(-c3ccc(N4CCC(F)C4)c(C#N)c3)c2o1 (stereo not drawn) [Compound 443, N-[1-azabicyclo[2.2.2]octan-3-yl]-5-[7-[3-cyano-4-(3-fluoropyrrolidin-1-yl)phenyl]furo[3,2-b]pyridin-2-yl]-4-methoxypyridine-2-carboxamide]",< 100,< 100,100 to 1000,–
"COc1cc(C(=O)N[C@@H]2CN3CCC2CC3)ncc1-c1cc2nccc(-c3ccc(N4CC[C@H](F)C4)c(C#N)c3)c2o1 [Compound 444, 5-{7-[3-Cyano-4-((S)-3-fluoro-pyrrolidin-1-yl)-phenyl]-furo[3,2-b]pyridin-2-yl}-4-methoxy-pyridine-2-carboxylic acid (1-aza-bicyclo[2.20.2]oct-3-yl)-amide]",< 100,< 100,< 100,–

# More lines, main results first:
IC50 (TBK1) [nM],IC50 (IKKε) [nM],IC50 ([1]; Homo sapiens) [nM],SMILES,IC50 [1] [nM]
1000 to 5000,1000 to 5000,100 to 1000,"COc1cc(C(=O)N(C)C)ncc1-c1cc2nccc(-c3ccc(OC4CCN(C(C)C)C4)c(C#N)c3)c2o1 (stereo not drawn) [Compound 428, 5-[7-(3-cyano-4-[[1-(propan-2-yl)pyrrolidin-3-yl]oxy]phenyl)furo[3,2-b]pyridin-2-yl]-4-methoxy-N,N-dimethylpyridine-2-carboxamide]",–
< 100,< 100,100 to 1000,"COc1cc(C(=O)N(C)C)ncc1-c1cc2nccc(-c3ccc(OC4CCNC4)c(C#N)c3)c2o1 (stereo not drawn) [Compound 429, 5-[7-[3-cyano-4-(pyrrolidin-3-yloxy)phenyl]furo[3,2-b]pyridin-2-yl]-4-methoxy-N,N-dimethylpyridine-2-carboxamide]",–
100 to 1000,100 to 1000,100 to 1000,"COc1cc(C(=O)N(C)C)ncc1-c1cc2nccc(-c3ccc(OC4CCN(C)C4)c(C#N)c3)c2o1 (stereo not drawn) [Compound 430, 5-(7-[3-cyano-4-[(1-methylpyrrolidin-3-yl)oxy]phenyl]furo[3,2-b]pyridin-2-yl)-4-methoxy-N,N-dimethylpyridine-2-carboxamide]",–
< 100,< 100,< 100,"COc1cc(C(=O)N(C)C)ncc1-c1cc2nccc(-c3ccc(NC4CCNC4)c(C#N)c3)c2o1 (stereo not drawn) [Compound 431, 5-(7-[3-cyano-4-[(pyrrolidin-3-yl)amino]phenyl]furo[3,2-b]pyridin-2-yl)-4-methoxy-N,N-dimethylpyridine-2-carboxamide]",–
< 100,< 100,< 100,"COc1cc(C(=O)N(C)C)cnc1-c1cc2nccc(-c3ccc(NC4CCNC4)c(C#N)c3)c2o1 (stereo not drawn) [Compound 432, 6-(7-[3-cyano-4-[(pyrrolidin-3-yl)amino]phenyl]furo[3,2-b]pyridin-2-yl)-5-methoxy-N,N-dimethylpyridine-3-carboxamide]",–
< 100,< 100,< 100,"COc1cc(C(=O)N(C)C)cnc1-c1cc2nccc(-c3ccc(NC4CCN(C)C4)c(C#N)c3)c2o1 (stereo not drawn) [Compound 433, 6-(7-[3-cyano-4-[(1-methylpyrrolidin-3-yl)amino]phenyl]furo[3,2-b]pyridin-2-yl)-5-methoxy-N,N-dimethylpyridine-3-carboxamide]",–
< 100,< 100,< 100,"COc1cc(C(=O)N(C)C)ncc1-c1cc2nccc(-c3ccc(NC4CCN(C)C4)c(C#N)c3)c2o1 (stereo not drawn) [Compound 434, 5-(7-[3-cyano-4-[(1-methylpyrrolidin-3-yl)amino]phenyl]furo[3,2-b]pyridin-2-yl)-4-methoxy-N,N-dimethylpyridine-2-carboxamide]",–
< 100,< 100,< 100,"COc1cc(C(=O)N(C)C)cnc1-c1cc2nccc(-c3ccc(NC4C5COCC54)c(C#N)c3)c2o1 (stereo not drawn) [Compound 436, 6-[7-[3-cyano-4-([3-oxabicyclo[3.1.0]hexan-6-yl]amino)phenyl]furo[3,2-b]pyridin-2-yl]-5-methoxy-N,N-dimethylpyridine-3-carboxamide]",–
< 100,< 100,100 to 1000,"COc1cc(C(=O)N(C)C)ncc1-c1cc2nccc(-c3ccc(NC4C5COCC54)c(C#N)c3)c2o1 (stereo not drawn) [Compound 437, 5-[7-[3-cyano-4-([3-oxabicyclo[3.1.0]hexan-6-yl]amino)phenyl]furo[3,2-b]pyridin-2-yl]-4-methoxy-N,N-dimethylpyridine-2-carboxamide]",–
